Common to all, as to type: functional
Assay [1] is filed under the species Mus musculus. In words: Minimum Effective Dose (MED) which cause 40% increase in life span, after singular injection at log (1/C).
The species entered for assay [2] is Mus musculus. The assay can be described thus: Minimum Effective Dose (MED) which cause 40% increase in life span, after chronic injection at log (1/C).
Assay [3] is filed under the species Mus musculus. The assay can be described thus: Optimal Dose (OD) which cause maximum increase in the life span, after chronic injection at log (1/C).
For assay [4], the species on record is Mus musculus. The assay can be described thus: Optimal Dose (OD) which cause maximum increase in the life span, after singular injection at log (1/C).

Turning to `CC(C)C1=C(N2CC2)C(=O)C(C(C)C)=C(N2CC2)C1=O`, the MED is on record as 4.36 in the assay listed under Mus musculus [1] and 4.77 in the assay listed under Mus musculus [2]. Besides, the results for the OD in the assay listed under Mus musculus [3] and in the assay filed under Mus musculus [4] were 4.59 and 4.14, respectively.
On the same counts, the results for `CC1=C(N2CC2)C(=O)C(CC(C)OC(N)=O)=C(N2CC2)C1=O` (stereo not given) are 5.86, 6.14, 5.79 and 5.18.
As to `COCCC1=C(N2CC2)C(=O)C(CCOC)=C(N2CC2)C1=O`, the MED is 5.18 in the assay filed under Mus musculus [1] and 5.69 in the assay filed under Mus musculus [2]. In addition, the OD in the assay filed under Mus musculus [3] was 5.31; in the assay listed under Mus musculus [4], 4.71.
On the same counts, the results for `CCCC1=C(N2CC2)C(=O)C(CCC)=C(N2CC2)C1=O` are 4.32, 4.92, 4.44 and 4.14.
`CCC1=C(N2CC2)C(=O)C(C)=C(N2CC2)C1=O`: the MED stood at 5.16 in the assay listed under Mus musculus [1] and 5.86 in the assay filed under Mus musculus [2]. In addition, the OD in the assay filed under Mus musculus [3] is 5.37; in the assay filed under Mus musculus [4], 4.52.
On the same counts, the results for `CC1=C(N2CC2)C(=O)C(CCCc2ccccc2)=C(N2CC2)C1=O` are 3.93, 4.47, 4.21 and 3.6.
`CC1=C(N2CC2)C(=O)C(Cc2ccccc2)=C(N2CC2)C1=O`: the MED in the assay filed under Mus musculus [1] came out at 4.74; in the assay filed under Mus musculus [2], 4.85. For the same compound, the OD in the assay listed under Mus musculus [3] is recorded as 4.69; in the assay filed under Mus musculus [4], 4.26.
For `CC1=C(N2CC2)C(=O)C(CCOC(N)=O)=C(N2CC2)C1=O`, in that order: 5.83, 6.21, 5.75 and 5.46.
In the case of `CC1=C(N2CC2)C(=O)C(C(C)COC(N)=O)=C(N2CC2)C1=O` (stereo not given), the MED in the assay listed under Mus musculus [1] is reported as 5.93; in the assay listed under Mus musculus [2], 6.41. Further, the OD in the assay filed under Mus musculus [3] was determined as 5.71; in the assay listed under Mus musculus [4], 5.31.
For `CC1=C(N2CC2)C(=O)C(CCO)=C(N2CC2)C1=O`, in that order: 5.89, 6.39, 5.79 and 5.25.
On the same counts, the results for `CC1=C(N2CC2)C(=O)C(C)=C(N2CC2)C1=O` are 5.36, 5.66, 5.36 and 4.79.
On the same counts, the results for `CCCC1=C(N2CC2)C(=O)C(C(COC(N)=O)OC)=C(N2CC2)C1=O` (stereo not given) are 5.01, 5.63, 5.07 and 4.64.
With `CCC(COC(N)=O)C1=C(N2CC2)C(=O)C(C)=C(N2CC2)C1=O` (stereo not given), the MED is 6.03 in the assay listed under Mus musculus [1] and 6.18 in the assay filed under Mus musculus [2]. In addition, the OD in the assay filed under Mus musculus [3] worked out at 5.66; in the assay listed under Mus musculus [4], 5.2.
For `CCCCCC1=C(N2CC2)C(=O)C(CCCCC)=C(N2CC2)C1=O`, in that order: 4.07, 4.63, 4.52 and 3.62.
As to `CCC(OC)C1=C(N2CC2)C(=O)C(C)=C(N2CC2)C1=O` (stereo not given), the MED came to 5.26 in the assay listed under Mus musculus [1] and 5.68 in the assay listed under Mus musculus [2]. Moreover, the OD in the assay filed under Mus musculus [3] was 5.33; in the assay listed under Mus musculus [4] it was 4.84.
For `COC(COC(N)=O)C1=C(N2CC2)C(=O)C(C)=C(N2CC2)C1=O` (stereo not given) [CARBOQUONE], in that order: 5.81, 6.41, 5.66 and 5.03.
`COC1=C(N2CC2)C(=O)C(OC)=C(N2CC2)C1=O`: the MED was determined as 4.81 in the assay filed under Mus musculus [1] and 5.59 in the assay listed under Mus musculus [2]. For the same compound, the OD amounted to 5.17 in the assay listed under Mus musculus [3] and 4.32 in the assay listed under Mus musculus [4].
With `CC1=C(N2CC2)C(=O)C(CCCOC(N)=O)=C(N2CC2)C1=O`, the MED in the assay filed under Mus musculus [1] was 5.55; in the assay listed under Mus musculus [2] it was 6.18. The values for the OD in the assay filed under Mus musculus [3] and in the assay filed under Mus musculus [4] were 5.93 and 5.48, respectively.
As for `COCCC1=C(N2CC2)C(=O)C(C)=C(N2CC2)C1=O`, the MED in the assay listed under Mus musculus [1] is on record as 5.19; in the assay listed under Mus musculus [2], 5.57. For the same compound, the figures for the OD in the assay listed under Mus musculus [3] and in the assay filed under Mus musculus [4] were 5.42 and 5.12, respectively.
On the same counts, the results for `O=C1C=C(N2CC2)C(=O)C(N2CC2)=C1N1CC1` [TRIAZIQUONE] are 6.02, 6.45, 6.19 and 5.74.
For `O=C1C(CCO)=C(N2CC2)C(=O)C(CCO)=C1N1CC1`, the values for the MED in the assay filed under Mus musculus [1] and in the assay filed under Mus musculus [2] were 5.93 and 6.54, respectively. Besides, the OD worked out at 6.05 in the assay listed under Mus musculus [3] and 5.6 in the assay listed under Mus musculus [4].
Turning to `CC1=C(N2CC2)C(=O)C(N2CC2)=C(N2CC2)C1=O`, the MED is 6.54 in the assay listed under Mus musculus [1] and 6.77 in the assay listed under Mus musculus [2]. The OD came out at 6.21 in the assay listed under Mus musculus [3] and 5.69 in the assay listed under Mus musculus [4].
For `COC(CO)C1=C(N2CC2)C(=O)C(C)=C(N2CC2)C1=O` (stereo not given), in that order: 6.05, 6.9, 5.75 and 5.27.
For the compound `COCCOC(COC(N)=O)C1=C(N2CC2)C(=O)C(C)=C(N2CC2)C1=O` (stereo not given), the MED in the assay listed under Mus musculus [1] was determined as 5.45; in the assay filed under Mus musculus [2], 6.03. The OD in the assay filed under Mus musculus [3] is recorded as 5.39; in the assay listed under Mus musculus [4], 4.96.
On the same counts, the results for `CCOC(COC(N)=O)C1=C(N2CC2)C(=O)C(CC)=C(N2CC2)C1=O` (stereo not given) are 5.4, 5.76, 5.24 and 4.64.
Turning to `CCC1=C(N2CC2)C(=O)C(C(COC(N)=O)OC)=C(N2CC2)C1=O` (stereo not given), the MED in the assay listed under Mus musculus [1] was 5.62; in the assay filed under Mus musculus [2], 6.16. Besides, the values for the OD in the assay listed under Mus musculus [3] and in the assay filed under Mus musculus [4] were 5.22 and 4.92, respectively.
On the same counts, the results for `CCOC(COC(N)=O)C1=C(N2CC2)C(=O)C(C)=C(N2CC2)C1=O` (stereo not given) are 5.53, 6.18, 5.22 and 4.62.
On the same counts, the results for `CC1=C(N2CC2)C(=O)C(COc2ccccc2)=C(N2CC2)C1=O` are 4.68, 5.15, 4.71 and 3.89.
On the same counts, the results for `CC1=C(N2CC2)C(=O)C(C(C)C)=C(N2CC2)C1=O` are 4.96, 5.6, 5.21 and 4.69.
With `CCC1=C(N2CC2)C(=O)C(CC)=C(N2CC2)C1=O`, the MED was found to be 4.94 in the assay listed under Mus musculus [1] and 5.46 in the assay listed under Mus musculus [2]. Moreover, the OD came to 5.09 in the assay listed under Mus musculus [3] and 4.79 in the assay filed under Mus musculus [4].

Values taken from ChEMBL document CHEMBL1124916, “Neural networks applied to quantitative structure-activity relationship analysis” (1990).
